From ChEMBL document CHEMBL1148630, “Conformationally biased P3 amide replacements of beta-secretase inhibitors” (Bioorg Med Chem Lett, 2006)

biological target: Beta-secretase 1 (Homo sapiens, UniProt P56817)
Sequence (P56817 whole entry): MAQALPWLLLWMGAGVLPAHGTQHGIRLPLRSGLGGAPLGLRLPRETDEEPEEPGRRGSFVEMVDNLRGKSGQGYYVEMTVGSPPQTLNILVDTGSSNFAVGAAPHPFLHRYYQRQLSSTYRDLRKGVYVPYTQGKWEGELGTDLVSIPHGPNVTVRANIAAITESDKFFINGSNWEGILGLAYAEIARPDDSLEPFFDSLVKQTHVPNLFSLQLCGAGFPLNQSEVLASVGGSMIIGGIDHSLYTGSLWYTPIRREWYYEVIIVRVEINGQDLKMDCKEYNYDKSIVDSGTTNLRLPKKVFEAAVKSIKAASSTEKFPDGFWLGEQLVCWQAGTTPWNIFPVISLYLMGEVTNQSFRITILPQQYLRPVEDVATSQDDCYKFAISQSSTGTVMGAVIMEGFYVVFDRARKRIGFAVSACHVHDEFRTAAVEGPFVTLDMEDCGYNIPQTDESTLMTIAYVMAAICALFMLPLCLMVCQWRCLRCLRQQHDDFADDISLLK
Description: Inhibition of BACE1 activity

SMILES | IC50
C=C(c1ccccc1)c1cc(C(=O)N[C@@H](Cc2ccccc2)[C@H](O)CNC2CC2)cc(N(C)S(C)(=O)=O)c1 | 1300 nM
CN(c1cc(CCC2CC2)cc(C(=O)N[C@@H](Cc2ccccc2)[C@H](O)CNC2CC2)c1)S(C)(=O)=O | 420 nM
CN(c1cc(/C=C\C2CC2)cc(C(=O)N[C@@H](Cc2ccccc2)[C@H](O)CNC2CC2)c1)S(C)(=O)=O | 35 nM
CN(c1cc(C(=O)N[C@@H](Cc2ccccc2)[C@H](O)CNC2CC2)cc(C(O)c2ccccc2)c1)S(C)(=O)=O (stereo partly drawn) | 5900 nM
CN(c1cc(Cc2ccccc2)cc(C(=O)N[C@@H](Cc2ccccc2)[C@H](O)CNC2CC2)c1)S(C)(=O)=O | 4630 nM
CNC(=O)c1cc(C(=O)N[C@@H](Cc2ccccc2)[C@H](O)CNC2CC2)cc(N(C)S(C)(=O)=O)c1 | 980 nM
CN(c1cc(C(=O)N[C@@H](Cc2ccccc2)[C@H](O)CNC2CC2)cc(C(O)Cc2ccccc2)c1)S(C)(=O)=O (stereo partly drawn) | 5500 nM
CN(c1cc(C(=O)N[C@@H](Cc2ccccc2)[C@H](O)CNC2CC2)cc(C(=O)C2CCCCC2)c1)S(C)(=O)=O | 450 nM
CN(c1cc(C(=O)Cc2ccccc2)cc(C(=O)N[C@@H](Cc2ccccc2)[C@H](O)CNC2CC2)c1)S(C)(=O)=O | 1400 nM
CC(C)C(=O)c1cc(C(=O)N[C@@H](Cc2ccccc2)[C@H](O)CNC2CC2)cc(N(C)S(C)(=O)=O)c1 | 240 nM
CN(c1cc(/C=C/C2CC2)cc(C(=O)N[C@@H](Cc2ccccc2)[C@H](O)CNC2CC2)c1)S(C)(=O)=O | 730 nM
CCC(=O)c1cc(C(=O)N[C@@H](Cc2ccccc2)[C@H](O)CNC2CC2)cc(N(C)S(C)(=O)=O)c1 | 1500 nM
CN(c1cc(C(=O)N[C@@H](Cc2ccccc2)[C@H](O)CNC2CC2)cc(C(=O)C2CCCC2)c1)S(C)(=O)=O | 180 nM
